The text below walks through data of patent US20250179047A1, “5-[7-(3,4-DIHYDRO-1H-ISOQUINOLINE-2-CARBONYL)-1,2,3,4 TETRAHYDROISOQUINOLIN-6-YL]-1H-PYRROLE-3-CARBOXAMIDE DERIVATIVES, PHARMACEUTICAL COMPOSITIONS CONTAINING THEM AND THEIR USES AS PRO-APOPTOTIC AGENTS” (LES LABORATOIRES SERVIER, priority 2022, published 2025).

The target of test [1] is BCL2 D103Y (Homo sapiens, UniProt P10415, D103Y). As to the kind of experiment: TR-FRET competitive binding assay, BCL2 D103Y. As to conditions: Ki determined from IC50, read-out: TR_FRET EKI_Bcl2 D103Y. The essentials: (§1)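 Terbium-labelled N-terminal Halo-fusion BCL2 or BCLXL (E. coli), 0.5 nM, competed against fluorescein-labelled PUMA peptide (2 or 20 nM) for 2 h at 23° C in 50 mM Hepes pH 7.5, 150 mM NaCl, 5% DMSO. TR-FRET 520/495 nm ratio gave IC50 by four-parameter fit; Ki derived from IC50.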

The target in test [2] is BCL2 D111A (Homo sapiens, UniProt P10415, D111A). Kind of test: TR-FRET competitive binding assay, BCL2 D111A. As to conditions: Ki determined from IC50, read-out: TR_FRET EKI_Bcl2 D111A. The essentials:
as §1

Test [3] addresses BCL2 F104I (Homo sapiens, UniProt P10415, F104I). As to the kind of experiment: TR-FRET competitive binding assay, BCL2 F104I. As to conditions: Ki determined from IC50, read-out: TR_FRET EKI_Bcl2 F104I. The essentials:
as §1
On the technique in general: TR-FRET usually uses a lanthanide donor and a delayed reading to cut background.

The target of test [4] is BCL2 WT (Homo sapiens (Human), UniProt P10415). Kind of test: TR-FRET competitive binding assay, BCL2 WT. The essentials: as §1
In test [5] the target is BCLXL WT (Homo sapiens (Human), UniProt Q07817). Kind of test: TR-FRET competitive binding assay, BCLXL WT. As to conditions: for Ki: BCLXL WT, Ki determined from IC50, read-out: TR_FRET EKI BclxL; for TR_FRET EKI BCLxL/WT selectivty ratio: ratio Ki BCLxL / Ki BCL2 WT. Summed up:
as §1

The subject of test [6] is KMS-12-PE Bcl-2 G101V. Kind of test: In vitro cytotoxicity CellTiter-Glo 48 h, KMS-12-PE Bcl-2 G101V. Type of test: cell-based. The settings on record: for Ratio (G101V/WT): C50 KMS-12-PE Bcl-2 G101V over C50 KMS-12-PE Bcl-2 WT; for IC50: 48 h, CellTiter-Glo, C50 = concentration needed to reach 50% of the cellular viability. Summed up: (§2)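 KMS-12-PE myeloma cells were lentivirally transduced with wild-type or G101V-mutant Bcl-2 and sorted by TagRFP. They were exposed to compounds as 11-point dose responses for 48 h at 37 °C, 5% CO2. Viability was read by CellTiter-Glo ATP luminescence, and C50 was the concentration giving 50% viability.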
For orientation: ATP-based viability assays read luminescence as a measure of living cells.

Test [7] has as its system KMS-12-PE Bcl-2 WT. Kind of test: In vitro cytotoxicity CellTiter-Glo 48 h, KMS-12-PE Bcl-2 WT. As to conditions: C50 = concentration needed to reach 50% of the cellular viability. Type of test: cell-based. Summed up: as §2
The test system of test [8] is BCL2 G101V. As to the kind of experiment: TR-FRET competitive binding assay, BCL2 G101V. Also noted: species or system human. As to conditions: for TR_FRET EKI G101V/WT selectivty ratio: ratio Ki BCL2 G101V / Ki BCL2 WT. Summed up: as §1
For test [9], the target named is BCL2 G101V (Homo sapiens, UniProt P10415, G101V). Kind of test: TR-FRET competitive binding assay, BCL2 G101V. The settings on record: BCL2 G101V; Ki determined from IC50; read-out: TR_FRET EKI_Bcl2 G101V. Summed up: as §1
Setting [10] is: Ki determined from IC50, read-out: TR_FRET EKI_Bcl2 WT.

Like-named read-outs stand apart in the source and are kept apart here.

Chain of BCLXL WT (Q07817 other isoform, or with tags, fused parts or gaps): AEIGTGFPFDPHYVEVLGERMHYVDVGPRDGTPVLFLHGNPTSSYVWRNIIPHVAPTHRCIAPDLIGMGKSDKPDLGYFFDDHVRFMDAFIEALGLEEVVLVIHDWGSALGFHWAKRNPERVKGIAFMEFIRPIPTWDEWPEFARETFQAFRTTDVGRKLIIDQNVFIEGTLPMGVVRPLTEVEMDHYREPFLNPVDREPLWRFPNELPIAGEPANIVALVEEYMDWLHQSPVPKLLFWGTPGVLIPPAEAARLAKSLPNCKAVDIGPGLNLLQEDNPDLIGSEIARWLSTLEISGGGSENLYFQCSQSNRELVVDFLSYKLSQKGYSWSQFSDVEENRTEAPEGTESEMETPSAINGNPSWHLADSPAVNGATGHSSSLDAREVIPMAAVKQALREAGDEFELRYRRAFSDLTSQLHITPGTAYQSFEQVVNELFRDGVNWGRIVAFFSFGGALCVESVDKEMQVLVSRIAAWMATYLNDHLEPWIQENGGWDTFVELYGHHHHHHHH

Consider `Cc1c(N(C(=O)c2cc(-c3cc4c(cc3C(=O)N3Cc5ccccc5C[C@H]3CN3CCCCC3)CN(C(=O)Cc3ccc(OCCN(C)C5COC5)cc3F)CC4)n(C)c2C)c2ccc(O)cc2)cc(C#N)n1C` [Example 105, N-(5-cyano-1,2-dimethyl-1H-pyrrol-3-yl)-5-{2-[2-(2-fluoro-4-{2-[methyl(oxetan-3-yl)amino]ethoxy}phenyl)acetyl]-7-[(3S)-3-[(piperidin-1-yl)methyl]-1,2,3,4-tetrahydroisoquinoline-2-carbonyl]-1,2,3,4-tetrahydroisoquinolin-6-yl}-N-(4-hydroxyphenyl)-1,2-dimethyl-1H-pyrrole-3-carboxamide], for which the Ki worked out at 0.11 nM in [1]; 0.12 nM in [2]; 0.22 nM in test [3]; 0.05 nM in test [4] (setting [10]); 1.6 nM in test [5]; 0.2 nM in test [9]. In addition, the “TR_FRET EKI BCLxL/WT selectivty ratio” value in test [5] amounted to 32.7. The “Ratio (G101V/WT)” value in [6] came out at 5.28. Further, the IC50 (in general, the midpoint of a concentration-inhibition curve) in test [6] (Homo sapiens, KMS-12-PE) is 0.0285 µM; in test [7] (Homo sapiens, KMS-12-PE) it was 0.0054 µM. Besides, the “TR_FRET EKI G101V/WT selectivty ratio” value in test [8] was 4.3.
`Cc1c(N(C(=O)c2cc(-c3cc4c(cc3C(=O)N3Cc5ccccc5C[C@H]3CN3CCCCC3)CN(C(=O)Cc3ccc(OCCN5CCOCC5(C)C)cc3)CC4)n(C)c2C)c2ccc(O)cc2)cc(C#N)n1C` [Example 148, N-(5-cyano-1,2-dimethylpyrrol-3-yl)-5-[2-(2-{4-[2-(3,3-dimethylmorpholin-4-yl)ethoxy]phenyl}acetyl)-7-{[(3S)-3-(piperidin-1-ylmethyl)-3,4-dihydro-1H-isoquinolin-2-yl]carbonyl}-3,4-dihydro-1H-isoquinolin-6-yl]-N-(4-hydroxyphenyl)-1,2-dimethylpyrrole-3-carboxamide]: the Ki in [1] was 0.18 nM; in test [2], 0.15 nM; in test [3] it was 0.29 nM; in [4] (setting [10]) it was 0.06 nM; in test [5], 1.5 nM; in test [9], 0.3 nM. The “TR_FRET EKI BCLxL/WT selectivty ratio” value in [5] is reported as 25.0. For the same compound, in test [6], the “Ratio (G101V/WT)” value is 4.9286. For the same compound, the IC50 came out at 0.0345 µM in [6] (Homo sapiens, KMS-12-PE) and 0.007 µM in test [7] (Homo sapiens, KMS-12-PE). In addition, in [8], the “TR_FRET EKI G101V/WT selectivty ratio” value is 4.2.
Consider `Cc1c(N(C(=O)c2cc(-c3cc4c(cc3C(=O)N3Cc5ccccc5C[C@H]3CN3CCCCC3)CN(C(=O)Cc3c(F)cc(OCCN5CCOCC5)cc3F)CC4)n(C)c2C)c2ccc(O)cc2)cc(C#N)n1C` [Example 97, N-(5-cyano-1,2-dimethylpyrrol-3-yl)-5-[2-(2-{2,6-difluoro-4-[2-(morpholin-4-yl)ethoxy]phenyl}acetyl)-7-{[(3S)-3-(piperidin-1-ylmethyl)-3,4-dihydro-1H-isoquinolin-2-yl]carbonyl}-3,4-dihydro-1H-isoquinolin-6-yl]-N-(4-hydroxyphenyl)-1,2-dimethylpyrrole-3-carboxamide], for which the Ki in test [1] amounted to 0.18 nM; in [2], 0.14 nM; in test [3], 0.16 nM; in [4] (setting [10]), 0.05 nM; in test [5] it was 1.9 nM; in test [9], 0.2 nM. In test [5], the “TR_FRET EKI BCLxL/WT selectivty ratio” value was determined as 41.3. Further, the “Ratio (G101V/WT)” value in test [6] amounted to 4.68. Also, the IC50 is 0.0158 µM in [6] (Homo sapiens, KMS-12-PE) and 0.0033 µM in test [7] (Homo sapiens, KMS-12-PE). Also, the “TR_FRET EKI G101V/WT selectivty ratio” value in test [8] came to 4.3.
On to `Cc1c(N(C(=O)c2cc(-c3cc4c(cc3C(=O)N3Cc5ccccc5C[C@H]3C)CN(C(=O)C3CCN(c5ccccc5)C3=O)CC4)n(C)c2C)c2ccc(O)cc2)cc(C#N)n1C` (stereo partly shown) [Example 29], for which the Ki was determined as 0.98 nM in [1]; 1.29 nM in test [2]; 78 nM in [3]; 0.67 nM in test [4] (setting [10]); 13.1 nM in test [5]; 6.9 nM in test [9]. For the same compound, in [5], the “TR_FRET EKI BCLxL/WT selectivty ratio” value worked out at 19.6. Also, the “Ratio (G101V/WT)” value in test [6] was found to be 3.62. For the same compound, the results for the IC50 in [6] and in test [7] were 0.0594 µM and 0.0164 µM, respectively. The “TR_FRET EKI G101V/WT selectivty ratio” value in test [8] is given as 10.3.
In the case of `Cc1c(C(=O)N(c2ccc(O)cc2)c2cnc3c(cnn3C)c2)cc(-c2cc3c(cc2C(=O)N2Cc4ccccc4C[C@H]2C)CN(C(=O)Cc2ccc(OCCN4CCOCC4)cc2)CC3)n1C` [Example 62, N-(4-hydroxyphenyl)-1,2-dimethyl-5-(7-{[(3R)-3-methyl-3,4-dihydro-1H-isoquinolin-2-yl]carbonyl}-2-(2-{4-[2-(morpholin-4-yl)ethoxy]phenyl}acetyl)-3,4-dihydro-1H-isoquinolin-6-yl)-N-{1-methylpyrazolo[3,4-b]pyridin-5-yl}pyrrole-3-carboxamide], the Ki in [1] came out at 0.47 nM; in [2], 0.09 nM; in test [3], 0.38 nM; in [4] (setting [10]), 0.06 nM; in test [5], 2.4 nM; in test [9] it was 0.3 nM. In addition, the “TR_FRET EKI BCLxL/WT selectivty ratio” value in test [5] came out at 38.7. Also, in test [6], the “Ratio (G101V/WT)” value amounted to 7.56. For the same compound, the half-maximal inhibitory concentration (IC50) in [6] (Homo sapiens, KMS-12-PE) was determined as 0.0892 µM; in test [7] (Homo sapiens, KMS-12-PE) it was 0.0118 µM. Moreover, the “TR_FRET EKI G101V/WT selectivty ratio” value in test [8] worked out at 5.5.
As to `Cc1c(N(C(=O)c2cc(-c3cc4c(cc3C(=O)N3Cc5ccccc5C[C@H]3CN3CCCCC3)CN(C(=O)Cc3ccc(OCCN5CCOCC5)cc3F)CC4)n(C)c2C)c2ccc(O)cc2)cc(C#N)n1C` [Example 229], the Ki is 0.11 nM in [1]; 0.1 nM in [2]; 0.164 nM in [3]; 0.04 nM in test [4] (Ki determined from IC50, read-out: TR_FRET EKI_Bcl2); 1.8 nM in test [5]; 0.22 nM in test [9]. In addition, in test [5] (ratio of Ki BCLxL to BCL2 WT), the “TR_FRET EKI BCLxL/WT selectivty” value was 45. Also, the “Ratio (G101V/WT)” value in test [6] is 4.4. The IC50 turned out to be 0.0222 µM in test [6] (Homo sapiens, KMS-12-PE) and 0.00502 µM in test [7] (Homo sapiens, KMS-12-PE). For the same compound, in test [8] (ratio of Ki BCL2 G101V to BCL2 WT), the “TR_FRET EKI G101V/WT selectivty” value is 5.5.
On to `Cc1c(N(C(=O)c2cc(-c3cc4c(cc3C(=O)N3Cc5ccccc5C[C@H]3C)CN(C(=O)Cc3ccc(OCCN5CCC(F)(F)C5)cc3)CC4)n(C)c2C)c2ccc(O)cc2)cc(C#N)n1C` [Example 50, N-(5-cyano-1,2-dimethyl-1H-pyrrol-3-yl)-5-[2-(2-{4-[2-(3,3-difluoropyrrolidin-1-yl)ethoxy]phenyl}acetyl)-7-[(3R)-3-methyl-1,2,3,4-tetrahydroisoquinoline-2-carbonyl]-1,2,3,4-tetrahydroisoquinolin-6-yl]-N-(4-hydroxyphenyl)-1,2-dimethyl-1H-pyrrole-3-carboxamide], for which the Ki in [1] came to 0.58 nM; in test [2], 1.46 nM; in test [3], 4.66 nM; in test [4] (setting [10]), 0.26 nM; in test [5] it was 5.8 nM; in test [9] it was 0.6 nM. Further, the “TR_FRET EKI BCLxL/WT selectivty ratio” value in test [5] came out at 22.3. For the same compound, in test [6], the “Ratio (G101V/WT)” value is 6.53. Further, the IC50 in [6] (Homo sapiens, KMS-12-PE) is 0.0341 µM; in test [7] (Homo sapiens, KMS-12-PE), 0.0052 µM. In addition, the “TR_FRET EKI G101V/WT selectivty ratio” value in [8] is 2.3.
As to `Cc1c(N(C(=O)c2cc(-c3cc4c(cc3C(=O)N3Cc5ccccc5C[C@H]3C)CN(C(=O)c3cnc(-c5ccccc5)s3)CC4)n(C)c2C)c2ccc(O)cc2)cc(C#N)n1C` [Example 17, N-(5-cyano-1,2-dimethyl-1H-pyrrol-3-yl)-N-(4-hydroxyphenyl)-1,2-dimethyl-5-{7-[(3R)-3-methyl-1,2,3,4-tetrahydroisoquinoline-2-carbonyl]-2-(2-phenyl-1,3-thiazole-5-carbonyl)-1,2,3,4-tetrahydroisoquinolin-6-yl}-1H-pyrrole-3-carboxamide], the Ki turned out to be 4.1 nM in test [1]; 3.34 nM in test [2]; 33.9 nM in test [3]; 0.65 nM in [4] (setting [10]); 9.6 nM in test [5]; 4 nM in test [9]. Also, the “TR_FRET EKI BCLxL/WT selectivty ratio” value in test [5] was 14.8. In test [6], the “Ratio (G101V/WT)” value is 4.51. Also, the IC50 in [6] (Homo sapiens, KMS-12-PE) worked out at 0.0144 µM; in test [7] (Homo sapiens, KMS-12-PE), 0.0032 µM. The “TR_FRET EKI G101V/WT selectivty ratio” value in test [8] turned out to be 6.2.
